The record followed here is patent US20180273528A1 (LES LABORATOIRES SERVIER, priority 2015, published 2018).

In assay [1] the target is T1, His-TEV-DYRK1A Kinase domain (aa127-485) (Homo sapiens, UniProt Q13627).
T1 construct: His-TEV-DYRK1A Kinase domain (aa127-485); His tag (N); TEV protease cleavage site (N)
The assay is described as follows: Kinase ADP assay (ADP Hunter), DYRK1A kinase domain. In kind it is biochemical. The settings on record: 20 μM ATP. In short, it runs like this: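 Readout is ADP Hunter fluorescence at 590 nm, developed 20 min at 30 °C after the kinase step. That step ran 10 min at 30 °C in Hepes pH 7.4 (10 mM MgCl2, 1 mM EGTA, 0.02% Tween20) containing 20 μM ATP, 40 μM peptide and 20 nM enzyme plus compound.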

A further assay deals with T2, CLK1 (Homo sapiens, UniProt P49759).
T2 construct: full-length human kinases from Carna Biosciences; purchased Carna Biosciences 04-126
As to the kind of experiment: Kinase TR-FRET assay, CLK1. Format: biochemical. Conditions: full-length human kinase, 10 μM ATP. The method, then: Inhibition of the enzymatic activity of human kinases was evaluated in a Time-Resolved Fluorescence Resonance Energy Transfer (TR-FRET) assay in 384-well reaction plates. […] Test compounds of the invention were added in reaction buffer at a range of concentrations from 0.1 nM to 30 μM. Following addition of EDTA (Sigma E7889, 10 mM) to stop the reaction, Europium-labelled mouse monoclonal antibody recognizing phospho-Thr232 in MBP (Perkin Elmer TRF0201, 1 nM) was added.
(In general: TR-FRET usually uses a lanthanide donor and a delayed reading to cut background.)

In assay [2] the target is T3, DYRK1A (Homo sapiens, UniProt Q13627). The assay is described as follows: Cellular DYRK1 autophosphorylation assay in U2-OS cells. Format: cell-based. On the set-up: full-length, wild-type human DYRK1A (NM_001396) with an HA tag; expressed in transfected cells; host or cells: human U2-OS osteosarcoma cells, transient transfection of a pcDNA3.1 plasmid. The settings on record: U2-OS cells transfected with HA-tagged human DYRK1A, 5 hours exposure; read-out: IC50 (μM) P-Ser520-Dyrk1A -Cell assay. The gist of the method: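 IC50 derived from dose-response curves of phospho-Ser520-DYRK1A (blots normalised to total DYRK1A), quantified by either immunoblotting with chemiluminescence or Mesoscale electrochemiluminescent ELISA. Compounds applied to U2-OS cells across several concentrations for 5 hours.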

In assay [3] the target is T3, DYRK1A. The assay is described as follows: Kinase TR-FRET assay, DYRK1A. In kind it is biochemical. The arrangement: full-length, wild-type human DYRK1A (NM_001396) with an HA tag; expressed in transfected cells; host or cells: human U2-OS osteosarcoma cells, transient transfection of a pcDNA3.1 plasmid. Conditions: full-length human kinase, 10 μM ATP. The gist of the method:
(§1)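 Compounds tested at 0.1 nM to 30 μM in reaction buffer; reaction stopped with 10 mM EDTA. Phosphorylated MBP detected with 1 nM Europium-labelled anti-phospho-Thr232 antibody by TR-FRET.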

The next assay addresses T4, DYRK1B (Homo sapiens, UniProt Q9Y463).
T4 construct: full-length human kinases from Carna Biosciences; purchased Carna Biosciences 04-131
As to the kind of experiment: Kinase TR-FRET assay, DYRK1B. Conditions: full-length human kinase, 10 μM ATP. Format: biochemical. The gist of the method:
as §1

The next assay concerns the target T5, CDK9 (Homo sapiens, UniProt P50750).
T5 construct: full-length human kinases from Carna Biosciences; purchased Carna Biosciences 04-110
As to the kind of experiment: Kinase TR-FRET assay, CDK9. In kind it is biochemical. Conditions: full-length human kinase, 10 μM ATP. The gist of the method:
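Full-length human CDK9 (0.9 ng/μl) incubated 100 min at room temperature with 10 μM ATP, 100 nM ULight-MBP peptide and compound (0.1 nM–30 μM) in 50 mM HEPES pH 7.4, 1 mM EGTA, 10 mM MgCl2, 2 mM DTT, 0.01% Tween20. Stopped with 10 mM EDTA, then 1 nM Eu-anti-phospho-Thr232 MBP antibody added for 1 h. TR-FRET read at 665/620 nm with 340 nm excitation.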

Bounds are passed on as bounds.

T4 sequence (Q9Y463 whole entry): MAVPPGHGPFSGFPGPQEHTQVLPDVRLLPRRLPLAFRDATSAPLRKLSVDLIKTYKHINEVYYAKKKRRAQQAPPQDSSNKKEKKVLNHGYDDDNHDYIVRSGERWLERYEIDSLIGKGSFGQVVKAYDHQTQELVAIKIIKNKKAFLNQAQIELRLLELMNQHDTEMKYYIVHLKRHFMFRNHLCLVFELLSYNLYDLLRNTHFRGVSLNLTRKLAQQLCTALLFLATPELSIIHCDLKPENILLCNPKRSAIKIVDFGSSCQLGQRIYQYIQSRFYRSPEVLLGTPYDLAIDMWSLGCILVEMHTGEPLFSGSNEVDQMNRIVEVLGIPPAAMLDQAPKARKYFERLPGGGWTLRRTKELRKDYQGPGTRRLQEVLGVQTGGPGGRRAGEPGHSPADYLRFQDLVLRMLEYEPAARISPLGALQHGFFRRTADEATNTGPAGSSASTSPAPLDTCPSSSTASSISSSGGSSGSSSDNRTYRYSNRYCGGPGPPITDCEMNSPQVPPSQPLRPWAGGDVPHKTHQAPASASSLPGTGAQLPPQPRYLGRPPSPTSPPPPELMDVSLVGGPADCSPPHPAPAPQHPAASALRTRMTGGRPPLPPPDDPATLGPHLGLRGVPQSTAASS
T2 sequence (P49759 1-526 isoform P49759-3): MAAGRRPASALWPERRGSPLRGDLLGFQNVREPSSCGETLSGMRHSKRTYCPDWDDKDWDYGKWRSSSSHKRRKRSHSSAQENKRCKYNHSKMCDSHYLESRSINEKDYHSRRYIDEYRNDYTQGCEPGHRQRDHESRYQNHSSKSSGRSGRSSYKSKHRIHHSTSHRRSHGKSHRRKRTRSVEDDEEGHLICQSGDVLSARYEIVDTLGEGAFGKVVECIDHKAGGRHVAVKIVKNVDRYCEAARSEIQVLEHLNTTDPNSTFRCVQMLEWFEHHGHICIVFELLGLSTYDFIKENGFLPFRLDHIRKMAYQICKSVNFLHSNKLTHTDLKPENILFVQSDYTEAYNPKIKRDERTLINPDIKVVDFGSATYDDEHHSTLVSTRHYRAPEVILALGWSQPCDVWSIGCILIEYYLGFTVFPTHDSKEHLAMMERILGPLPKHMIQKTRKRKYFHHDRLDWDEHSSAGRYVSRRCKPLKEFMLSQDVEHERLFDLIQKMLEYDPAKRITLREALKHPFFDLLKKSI
T5 sequence (P50750 whole entry): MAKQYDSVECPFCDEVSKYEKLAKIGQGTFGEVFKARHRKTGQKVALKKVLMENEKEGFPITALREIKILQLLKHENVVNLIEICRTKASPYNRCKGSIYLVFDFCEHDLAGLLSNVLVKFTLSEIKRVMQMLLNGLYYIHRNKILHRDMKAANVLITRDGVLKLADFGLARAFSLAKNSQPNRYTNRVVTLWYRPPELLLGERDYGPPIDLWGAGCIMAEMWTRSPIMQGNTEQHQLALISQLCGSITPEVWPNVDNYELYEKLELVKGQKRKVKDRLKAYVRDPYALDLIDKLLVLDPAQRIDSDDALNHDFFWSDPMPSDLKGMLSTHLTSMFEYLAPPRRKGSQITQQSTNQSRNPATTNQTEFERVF
T5 sequence (O60563 whole entry partner): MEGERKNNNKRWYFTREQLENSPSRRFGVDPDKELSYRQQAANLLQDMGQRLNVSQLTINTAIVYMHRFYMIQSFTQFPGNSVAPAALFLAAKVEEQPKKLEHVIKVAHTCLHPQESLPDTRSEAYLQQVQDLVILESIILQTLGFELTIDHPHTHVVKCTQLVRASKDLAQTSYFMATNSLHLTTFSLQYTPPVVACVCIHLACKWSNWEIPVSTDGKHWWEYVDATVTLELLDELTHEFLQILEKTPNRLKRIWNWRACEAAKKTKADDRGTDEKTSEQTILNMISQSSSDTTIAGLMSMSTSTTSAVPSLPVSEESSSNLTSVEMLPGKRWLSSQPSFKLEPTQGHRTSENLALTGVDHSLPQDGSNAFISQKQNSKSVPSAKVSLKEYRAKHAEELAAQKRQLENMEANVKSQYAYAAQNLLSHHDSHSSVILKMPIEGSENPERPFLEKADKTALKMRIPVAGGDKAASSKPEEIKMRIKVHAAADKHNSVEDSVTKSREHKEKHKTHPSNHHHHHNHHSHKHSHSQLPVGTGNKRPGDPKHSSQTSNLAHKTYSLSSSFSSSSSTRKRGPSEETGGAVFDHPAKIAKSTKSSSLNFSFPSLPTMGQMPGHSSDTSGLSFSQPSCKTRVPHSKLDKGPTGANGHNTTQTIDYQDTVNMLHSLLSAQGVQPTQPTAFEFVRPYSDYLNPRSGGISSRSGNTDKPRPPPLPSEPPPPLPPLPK

One may read the IC50 as the point on the concentration scale where inhibition reaches its midpoint. On to `CCOc1cccc(CCn2c(C)nc3ccc(-c4cc(N)nc(N)c4)nc32)c1` [Example 90, 4-{3-[2-(3-ethoxyphenyl)ethyl]-2-methyl-3H-imidazo[4,5-b]pyridin-5-yl}pyridine-2,6-diamine], for which the figures for the 50% inhibitory concentration (IC50) (in assay [1]; against CLK1; at DYRK1A [2]) were 0.015 µM, 0.016 µM and 0.129 µM, respectively.

For the molecule `Cc1nc2ccc(-c3cc(N)nc(N)c3)nc2n1CC1CC1c1ccccc1` (stereo not drawn) [Example 97, 4-{2-methyl-3-[(2-phenylcyclopropyl)methyl]-3H-imidazo[4,5-b]pyridin-5-yl}pyridine-2,6-diamine], the IC50 came to 0.015 µM in assay [1], 0.021 µM against CLK1 and 0.097 µM on DYRK1A [2].

`N#Cc1nc2ccc(-c3cc(N)nc(N)c3)nc2n1C1CC1` [Example 224, 3-cyclopropyl-5-(2,6-diaminopyridin-4-yl)-3H-imidazo[4,5-b]pyridine-2-carbonitrile]: the IC50 turned out to be 0.009 µM in assay [1], 0.02 µM at CLK1 and 0.057 µM at DYRK1A [2].

On to `Cc1nc2ccc(-c3cc(N)nc(N)c3)nc2n1CCOc1ccc(Cl)cc1` [Example 207, 4-{3-[2-(4-chlorophenoxy)ethyl]-2-methyl-3H-imidazo[4,5-b]pyridin-5-yl}pyridine-2,6-diamine], for which the concentration for half-maximal inhibition (IC50) amounted to 0.026 µM in assay [1], 0.021 µM against CLK1 and 0.12 µM at DYRK1A [2].

Regarding `COc1ccccc1CCn1c(C)nc2ccc(-c3cc(N)nc(N)c3)nc21` [Example 81, 4-{3-[2-(2-methoxyphenyl)ethyl]-2-methyl-3H-imidazo[4,5-b]pyridin-5-yl}pyridine-2,6-diamine], the results for the half-maximal inhibitory concentration (IC50) (in assay [1]; on CLK1; at DYRK1A [2]) were 0.021 µM, 0.015 µM and 0.094 µM, respectively.

Consider `CCn1c(C#N)nc2ccc(-c3cc(N)nc(N)c3)nc21` [Example 223, 5-(2,6-diaminopyridin-4-yl)-3-ethyl-3H-imidazo[4,5-b]pyridine-2-carbonitrile], for which the IC50 worked out at 0.009 µM in assay [1], 0.02 µM against CLK1 and 0.097 µM at DYRK1A [2].

Turning to `Cc1nc2ccc(-c3cc(N)nc(N)c3)nc2n1CCOc1ccccc1F` [Example 203, 4-{3-[2-(2-fluorophenoxy)ethyl]-2-methyl-3H-imidazo[4,5-b]pyridin-5-yl}pyridine-2,6-diamine], the IC50 in assay [1] was determined as 0.017 µM; against CLK1, 0.016 µM; on DYRK1A [2] it was 0.148 µM.

As for `Cc1nc2ccc(-c3cc(N)nc(N)c3)nc2n1CCC1CCOCC1` [Example 78, 4-{2-methyl-3-[2-(tetrahydro-2H-pyran-4-yl)ethyl]-3H-imidazo[4,5-b]pyridin-5-yl}pyridine-2,6-diamine], the concentration for half-maximal inhibition (IC50) in assay [1] amounted to 0.025 µM; at CLK1, 0.018 µM; at DYRK1A [2], 0.133 µM.

Consider `COc1ccc2c(c1)CC(n1c(C)nc3ccc(-c4cc(N)nc(N)c4)nc31)C2` (stereo not drawn) [Example 98, 4-[3-(5-methoxy-2,3-dihydro-1H-inden-2-yl)-2-methyl-3H-imidazo[4,5-b]pyridin-5-yl]pyridine-2,6-diamine], for which the concentration for half-maximal inhibition (IC50) was found to be 0.004 µM against DYRK1A [3]; 0.007 µM in assay [1]; 0.015 µM against CLK1; 0.009 µM on DYRK1B; 0.019 µM at DYRK1A [2].

On to `C=CCn1c(C#N)nc2ccc(-c3cc(N)nc(N)c3)nc21` [Example 225, 5-(2,6-diaminopyridin-4-yl)-3-(prop-2-en-1-yl)-3H-imidazo[4,5-b]pyridine-2-carbonitrile], for which the values for the 50% inhibitory concentration (IC50) (in assay [1]; on CLK1) were 0.012 µM and 0.021 µM, respectively.

For the molecule `Cn1c(C#N)nc2ccc(-c3cc(N)nc(N)c3)nc21` [Example 227, 5-(2,6-diaminopyridin-4-yl)-3-methyl-3H-imidazo[4,5-b]pyridine-2-carbonitrile], the results for the IC50 (in assay [1]; against CLK1; at DYRK1A [2]) were 0.01 µM, 0.042 µM and 0.262 µM, respectively.

In the case of `Cc1nc2ccc(-c3cc(N)nc(N)c3)nc2n1C[C@@H]1C[C@H]1c1ccccc1` (single isomer, unassigned) [Example 110], the IC50 in assay [1] amounted to 0.019 µM; on CLK1, 0.02 µM; at DYRK1A [2], 0.042 µM.

Take `Cc1nc2ccc(-c3cc(N)nc(N)c3)nc2n1CCc1ccccc1C(F)(F)F` [Example 79, 4-(2-methyl-3-{2-[2-(trifluoromethyl)phenyl]ethyl}-3H-imidazo[4,5-b]pyridin-5-yl)pyridine-2,6-diamine]: the IC50 came out at 0.021 µM in assay [1], 0.014 µM against CLK1 and 0.068 µM at DYRK1A [2].

In the case of `Cc1ccccc1CCn1c(C)nc2ccc(-c3cc(N)nc(N)c3)nc21` [Example 63, 4-{2-methyl-3-[2-(2-methylphenyl)ethyl]-3H-imidazo[4,5-b]pyridin-5-yl}pyridine-2,6-diamine], the IC50 is 0.003 µM against DYRK1A [3]; 0.008 µM in assay [1]; 0.007 µM at DYRK1B; more than 10 µM against CDK9; 0.024 µM at DYRK1A [2].

On to `Cc1nc2ccc(-c3cc(N)nc(N)c3)nc2n1C1CC(c2ccccc2)C1` (stereo not drawn) [Example 100, 4-[2-methyl-3-(3-phenylcyclobutyl)-3H-imidazo[4,5-b]pyridin-5-yl]pyridine-2,6-diamine], for which the IC50 in assay [1] came out at 0.006 µM; at CLK1, 0.014 µM; at DYRK1A [2] it was 0.006 µM.

Consider `CCCCc1nc2ccc(-c3cc(N)nc(N)c3)nc2n1C1CCCC1` [Example 145, 4-(2-butyl-3-cyclopentyl-3H-imidazo[4,5-b]pyridin-5-yl)pyridine-2,6-diamine], for which the IC50 in assay [1] was 0.03 µM; on CLK1, 0.115 µM; on DYRK1A [2], 0.171 µM.

For `COc1cccc(OCCn2c(C)nc3ccc(-c4cc(N)nc(N)c4)nc32)c1` [Example 202, 4-{3-[2-(3-methoxyphenoxy)ethyl]-2-methyl-3H-imidazo[4,5-b]pyridin-5-yl}pyridine-2,6-diamine], the 50% inhibitory concentration (IC50) in assay [1] was 0.023 µM; on CLK1 it was 0.018 µM; at DYRK1A [2], 0.18 µM.

Turning to `CCCn1c(C)nc2ccc(-c3cc(N)nc(N)c3)nc21` [Example 2, 4-(2-methyl-3-propyl-3H-imidazo[4,5-b]pyridin-5-yl)pyridine-2,6-diamine], the IC50 against DYRK1A [3] was found to be 0.008 µM; in assay [1], 0.01 µM; at DYRK1B, 0.001 µM; against CDK9, 0.383 µM; on DYRK1A [2], 0.2 µM.

For `Cc1nc2ccc(-c3cc(N)nc(N)c3)nc2n1CCC(F)(F)F` [Example 108, 4-[2-methyl-3-(3,3,3-trifluoropropyl)-3H-imidazo[4,5-b]pyridin-5-yl]pyridine-2,6-diamine], the IC50 in assay [1] is 0.017 µM; against CLK1, 0.026 µM; at DYRK1A [2] it was 0.109 µM.

With `Cc1nc2ccc(-c3cc(N)nc(N)c3)nc2n1CCOc1ccc(F)cc1` [Example 198, 4-{3-[2-(4-fluorophenoxy)ethyl]-2-methyl-3H-imidazo[4,5-b]pyridin-5-yl}pyridine-2,6-diamine], the IC50 in assay [1] amounted to 0.025 µM; at CLK1, 0.017 µM; at DYRK1A [2], 0.092 µM.

Take `Cc1nc2ccc(-c3cc(N)nc(N)c3)nc2n1C(C)(C)C` [Example 25, 4-(3-tert-butyl-2-methyl-3H-imidazo[4,5-b]pyridin-5-yl)pyridine-2,6-diamine]: the IC50 is 0.007 µM on DYRK1A [3]; 0.01 µM in assay [1]; 0.006 µM on DYRK1B; 1.84 µM on CDK9; 0.228 µM on DYRK1A [2].

As to `COCCCn1c(C)nc2ccc(-c3cc(N)nc(N)c3)nc21` [Example 150, 4-[3-(3-methoxypropyl)-2-methyl-3H-imidazo[4,5-b]pyridin-5-yl]pyridine-2,6-diamine], the IC50 stood at 0.006 µM on DYRK1A [3]; 0.019 µM in assay [1]; 0.014 µM against DYRK1B; 3.03 µM against CDK9; 0.28 µM on DYRK1A [2].
